Here are results for one compound from BindingDB's records for doi:10.1021/jm034182u (Virginia Commonwealth University, 2004).

Broadly, the IC50 is the point on the concentration scale where inhibition reaches its midpoint.

This assay has as its target E3 ubiquitin-protein ligase Mdm2 (Homo sapiens, UniProt Q00987). Nature of the assay: ELISA-Based p53-MDM2 Binding Assay. As to conditions: pH 7.6; 37 °C. The protocol:
ELISA plates were coated with equivalent amounts of either glutathione S-transferase (GST) protein or GST-MDM2 (1-188) fusion protein and incubated on a microtiter plate shaker overnight at 4 deg C. After washing the wells five times with PBS containing 0.2 M NaCl, the plates were incubated at 37 deg C with blocking solution (PBS containing 5% nonfat dry milk) for 2 hours. After the plates were washed five times, the GST-p53 was added, and the plates were incubated for an additional 30 minutes at 37 deg C. After another washing step, the plates were incubated with the anti-p53 monoclonal pAb421 (Oncogene Science, Inc.) in blocking solution for 1 hour at 37 deg C. The plates were again washed five times and incubated for 1 hour at 37 deg C with a goat anti-mouse IgG alkaline phosphatase conjugate (Promega, Inc.). Excess antibody was removed with 15 washes, the wells were filled with PBS, and the absorbance at 405 nm was read to establish background readings for the wells. […] Finally, the A405 was measured with a microplate spectrophotometer (Molecular Devices, Inc.). […] Absorbance values were normalized by subtraction of equivalent GST-seeded well values from their GST-mdm2 (1-188)-seeded neighbors. IC50 values were determined by fitting data to a three-parameter sigmoidal dose-response function.

Chain of E3 ubiquitin-protein ligase Mdm2 (Q00987 whole entry, the tested form may be a part): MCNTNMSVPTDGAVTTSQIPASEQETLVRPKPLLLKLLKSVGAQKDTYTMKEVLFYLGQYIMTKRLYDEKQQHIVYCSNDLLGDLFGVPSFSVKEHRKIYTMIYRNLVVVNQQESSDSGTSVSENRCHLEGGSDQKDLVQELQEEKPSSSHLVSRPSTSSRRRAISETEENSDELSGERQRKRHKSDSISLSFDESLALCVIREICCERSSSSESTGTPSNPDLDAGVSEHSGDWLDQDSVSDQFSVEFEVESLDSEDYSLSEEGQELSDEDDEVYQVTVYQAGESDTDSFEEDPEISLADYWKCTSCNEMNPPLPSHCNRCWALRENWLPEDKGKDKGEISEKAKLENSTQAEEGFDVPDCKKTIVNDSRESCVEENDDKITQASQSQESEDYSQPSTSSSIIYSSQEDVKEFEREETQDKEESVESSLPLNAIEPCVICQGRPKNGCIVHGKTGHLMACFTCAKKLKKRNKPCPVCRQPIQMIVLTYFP

Consider `CC(C)Oc1ccc(C(=O)NS(=O)(=O)c2ccc(N=Nc3c(O)n(-c4ccccc4)n(-c4ccccc4)c3=O)cc2)cc1`, for which the IC50 came out at 31.8 µM.
